Source: patent publication US20100160356A1, “NOVEL CYCLOBUTYL COMPOUNDS AS KINASE INHIBITORS” (priority 2006, published 2010)
Counter-ions that a name gives are not always drawn.

Columns and labels:
[1] = biological target: T1, TGFβR1 (Homo sapiens, UniProt P36897); assay: Inhibition of TGFβR1 (flashplate assay); format: biochemical; settings: flashplate method
T1 sequence (P36897 34-503): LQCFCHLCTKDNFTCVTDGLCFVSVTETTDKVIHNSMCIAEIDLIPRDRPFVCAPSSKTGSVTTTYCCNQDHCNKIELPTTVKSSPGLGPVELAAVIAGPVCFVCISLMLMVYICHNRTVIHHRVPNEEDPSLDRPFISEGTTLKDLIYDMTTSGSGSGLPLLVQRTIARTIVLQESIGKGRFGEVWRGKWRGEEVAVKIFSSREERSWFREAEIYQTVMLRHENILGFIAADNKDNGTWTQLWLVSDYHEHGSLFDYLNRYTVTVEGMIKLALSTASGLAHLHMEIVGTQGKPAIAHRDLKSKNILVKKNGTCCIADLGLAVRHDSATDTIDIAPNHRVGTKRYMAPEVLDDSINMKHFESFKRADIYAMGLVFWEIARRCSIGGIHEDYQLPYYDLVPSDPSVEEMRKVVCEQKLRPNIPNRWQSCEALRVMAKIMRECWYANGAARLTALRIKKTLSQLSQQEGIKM
Experimental: The test is carried out as described in Example B1b for IGF1R. A biotinylated is added to the TGFβR1 kinase.
The kinase assay is carried out as a 384-well flashplate assay.
The components of the kinase reaction are pipetted into the assay plate. The TGFβR1 kinase is incubated for 45 min with radioactively labelled ^33P-ATP in the presence and absence of test substances together with biotinylated substrate in a total volume of 35 μl. The reaction is terminated using 25 μl of 200 mM EDTA solution, removed by suction after 30 min at room temperature, and the wells are washed with three times with 100 μl of 0.9% NaCl solution each time. The radioactivity is measured using a Topcount scintillation counter (PerkinElmer, USA). IC50 values are calculated using the RS1 computer program.

[2] = biological target: T2, FAK (focal adhesion kinase) (Homo sapiens, UniProt Q05397); assay: Inhibition of FAK (ELISA assay), FAK phosphorylation in cells; format: cell-based; settings: human cells with FAK amplification
T2 construct: endogenous in cells; host or cells: Calu-6 or HT-29
T2 sequence (Q05397 whole entry): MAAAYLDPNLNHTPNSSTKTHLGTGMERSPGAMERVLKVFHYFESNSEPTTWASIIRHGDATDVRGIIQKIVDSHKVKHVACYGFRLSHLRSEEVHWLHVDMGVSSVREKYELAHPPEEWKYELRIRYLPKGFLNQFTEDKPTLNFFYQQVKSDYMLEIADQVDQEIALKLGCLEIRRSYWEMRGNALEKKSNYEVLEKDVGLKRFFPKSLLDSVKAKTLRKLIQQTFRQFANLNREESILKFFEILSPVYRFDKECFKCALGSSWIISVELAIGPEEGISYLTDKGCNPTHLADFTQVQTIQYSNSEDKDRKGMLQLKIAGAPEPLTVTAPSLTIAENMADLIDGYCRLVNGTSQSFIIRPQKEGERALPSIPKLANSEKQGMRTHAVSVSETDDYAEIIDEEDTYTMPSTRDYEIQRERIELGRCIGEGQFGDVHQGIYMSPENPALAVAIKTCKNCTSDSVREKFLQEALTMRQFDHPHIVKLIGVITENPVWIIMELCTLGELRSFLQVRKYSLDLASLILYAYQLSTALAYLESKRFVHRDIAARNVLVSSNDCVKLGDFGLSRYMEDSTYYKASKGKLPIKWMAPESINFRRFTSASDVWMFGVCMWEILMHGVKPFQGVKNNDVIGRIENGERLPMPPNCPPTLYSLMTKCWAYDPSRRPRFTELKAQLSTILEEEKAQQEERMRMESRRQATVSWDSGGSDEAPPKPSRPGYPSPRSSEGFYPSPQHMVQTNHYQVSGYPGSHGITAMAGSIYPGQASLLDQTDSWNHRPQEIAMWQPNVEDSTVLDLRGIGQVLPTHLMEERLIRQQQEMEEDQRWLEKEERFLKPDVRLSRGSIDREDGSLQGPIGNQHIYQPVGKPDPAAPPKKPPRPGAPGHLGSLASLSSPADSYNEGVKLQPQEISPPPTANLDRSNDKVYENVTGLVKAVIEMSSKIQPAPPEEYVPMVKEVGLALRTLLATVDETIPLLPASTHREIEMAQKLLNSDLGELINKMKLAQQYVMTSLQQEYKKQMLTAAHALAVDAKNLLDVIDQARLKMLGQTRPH
Experimental: Activated FAK promotes the invasive growth of tumour cells and inhibits anoikis.
The amount of phosphorylated FAK is determined by a specific capture ELISA or an analogous LUMINEX assay. FAK from cell lysates is bound to a 96-well ELISA plate or LUMINEX beads by means of a specific antibody (“capturing”), and the tyrosine phosphorylation is detected using a biotin-labelled anti-phosphotyrosine antibody and a streptavidin-peroxidase conjugate by a chemiluminescence method or by means of a fluorescence-labelled anti-phosphotyrosine antibody.
For determination of the activity of kinase inhibitors, cells are pretreated with increasing concentrations of these compounds for 45 min, and the FAK phosphorylation is then determined. As internal control, a concentration series of a reference inhibitor is measured.

[3] = biological target: T3, IGF1 receptor (IGF1R) (Homo sapiens, UniProt P08069); assay: Inhibition of IGF1R (ELISA assay), IGF1-stimulated autophosphorylation in cells; format: cell-based; settings: human tumour cells stimulated with IGF1, read-out: IC50 IGF (ELISA)
T3 construct: endogenous in cells; host or cells: MCF-7 or Calu-6
T3 sequence (P08069 31-1367): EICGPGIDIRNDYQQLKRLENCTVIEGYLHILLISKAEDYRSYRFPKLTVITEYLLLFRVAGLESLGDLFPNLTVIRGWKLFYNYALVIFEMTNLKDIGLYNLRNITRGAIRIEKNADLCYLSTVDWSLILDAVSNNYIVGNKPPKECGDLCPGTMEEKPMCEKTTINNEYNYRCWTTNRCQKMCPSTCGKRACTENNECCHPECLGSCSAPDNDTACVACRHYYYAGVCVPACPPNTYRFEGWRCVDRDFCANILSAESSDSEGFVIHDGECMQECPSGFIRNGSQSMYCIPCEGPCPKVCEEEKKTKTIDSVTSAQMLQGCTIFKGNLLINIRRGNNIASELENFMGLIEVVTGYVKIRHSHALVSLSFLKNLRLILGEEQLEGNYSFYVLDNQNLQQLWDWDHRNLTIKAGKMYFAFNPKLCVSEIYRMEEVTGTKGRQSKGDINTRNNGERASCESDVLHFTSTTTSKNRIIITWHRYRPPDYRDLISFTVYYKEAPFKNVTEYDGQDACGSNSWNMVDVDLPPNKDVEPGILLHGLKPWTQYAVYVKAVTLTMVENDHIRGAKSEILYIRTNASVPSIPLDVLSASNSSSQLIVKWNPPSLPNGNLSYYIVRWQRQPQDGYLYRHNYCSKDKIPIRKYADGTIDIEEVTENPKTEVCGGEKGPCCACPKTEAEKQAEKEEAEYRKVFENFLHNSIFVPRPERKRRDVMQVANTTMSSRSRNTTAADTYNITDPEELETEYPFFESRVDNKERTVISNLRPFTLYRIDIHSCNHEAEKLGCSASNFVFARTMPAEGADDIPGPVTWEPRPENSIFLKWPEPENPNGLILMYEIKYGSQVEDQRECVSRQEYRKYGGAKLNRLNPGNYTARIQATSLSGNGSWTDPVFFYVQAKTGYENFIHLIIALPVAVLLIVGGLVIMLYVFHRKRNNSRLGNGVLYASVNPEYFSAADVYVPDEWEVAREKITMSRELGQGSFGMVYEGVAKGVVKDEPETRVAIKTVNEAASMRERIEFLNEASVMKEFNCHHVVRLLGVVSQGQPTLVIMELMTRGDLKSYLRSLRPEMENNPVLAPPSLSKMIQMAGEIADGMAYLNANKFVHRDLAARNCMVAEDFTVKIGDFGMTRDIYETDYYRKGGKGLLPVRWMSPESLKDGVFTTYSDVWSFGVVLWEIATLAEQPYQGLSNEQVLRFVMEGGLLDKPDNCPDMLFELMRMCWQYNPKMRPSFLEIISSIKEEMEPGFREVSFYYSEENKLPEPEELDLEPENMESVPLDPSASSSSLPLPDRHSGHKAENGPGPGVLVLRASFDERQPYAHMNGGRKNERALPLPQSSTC
Experimental: The stimulation induces an autophosphorylation of tyrosine residues in the cytoplasmatic IGF1R domain, which triggers signal transduction cascades, which result in inhibition of apoptosis and proliferation of the cells.
The amount of phosphorylated IGF1R is determined by a receptor-specific capture ELISA or an analogous LUMINEX assay. The IGF1R from cell lysates is bound to a 96-well ELISA plate or LUMINEX beads by means of a specific antibody (“capturing”), and the tyrosine phosphorylation is detected using a biotin-labelled anti-phosphotyrosine antibody and a streptavidin-peroxidase conjugate by a chemiluminescence method or by means of a fluorescence-labelled anti-phosphotyrosine antibody.
For determination of the activity of kinase inhibitors, cells are pretreated with increasing concentrations of these compounds for 45 min and subsequently stimulated using IGF1 for 5 min. As internal control, the biological activity of the ligand IGF1 is checked, and a concentration series of an IGF1R reference inhibitor is measured.

[4] = biological target: PDGFRβ (Homo sapiens, UniProt P09619); assay: Inhibition of PDGFRβ (flashplate assay); format: biochemical; settings: flashplate method
PDGFRβ, sequence (P09619 33-1106, species assumed): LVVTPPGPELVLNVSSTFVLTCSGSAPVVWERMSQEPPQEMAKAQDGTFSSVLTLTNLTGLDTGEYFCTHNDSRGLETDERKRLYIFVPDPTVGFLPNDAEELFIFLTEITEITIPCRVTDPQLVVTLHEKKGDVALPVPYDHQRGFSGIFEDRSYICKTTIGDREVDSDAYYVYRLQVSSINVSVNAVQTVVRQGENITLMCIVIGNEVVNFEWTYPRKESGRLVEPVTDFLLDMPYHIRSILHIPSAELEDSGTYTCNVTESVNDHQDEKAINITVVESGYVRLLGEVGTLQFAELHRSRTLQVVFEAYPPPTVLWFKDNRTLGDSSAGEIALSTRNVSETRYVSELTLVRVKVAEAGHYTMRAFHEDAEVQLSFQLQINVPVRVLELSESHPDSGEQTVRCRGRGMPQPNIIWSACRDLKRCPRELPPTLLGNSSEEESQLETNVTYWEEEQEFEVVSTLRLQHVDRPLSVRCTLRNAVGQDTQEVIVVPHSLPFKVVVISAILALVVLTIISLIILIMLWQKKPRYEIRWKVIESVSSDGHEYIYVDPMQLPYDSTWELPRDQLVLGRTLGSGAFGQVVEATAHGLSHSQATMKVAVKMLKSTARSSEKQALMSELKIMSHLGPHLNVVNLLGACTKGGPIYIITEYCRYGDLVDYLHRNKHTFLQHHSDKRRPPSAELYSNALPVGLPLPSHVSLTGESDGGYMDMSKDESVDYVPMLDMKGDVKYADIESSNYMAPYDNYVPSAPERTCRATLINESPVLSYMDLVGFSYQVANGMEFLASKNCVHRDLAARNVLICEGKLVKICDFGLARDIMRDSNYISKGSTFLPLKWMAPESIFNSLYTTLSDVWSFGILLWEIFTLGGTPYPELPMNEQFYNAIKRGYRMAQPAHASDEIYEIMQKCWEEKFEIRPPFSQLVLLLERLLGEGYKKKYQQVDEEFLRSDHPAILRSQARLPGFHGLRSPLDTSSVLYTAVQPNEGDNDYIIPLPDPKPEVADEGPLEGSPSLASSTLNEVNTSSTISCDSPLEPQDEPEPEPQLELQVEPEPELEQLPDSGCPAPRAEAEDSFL
Experimental: (§1) The test plates used are 96-well flashplate microtitre plates from Perkin Elmer (USA). The components of the kinase reaction are pipetted into the assay plate. The PDGFRβ kinase is incubated for 3 hr. with radioactively labelled ^33P-ATP in the presence and absence of test substances in a total volume of 100 μl at room temperature (here autophosphorylation of the kinase). The reaction is terminated using 150 μl of a 60 mM EDTA solution. After incubation for a further 30 min at room temperature, the supernatants are removed by suction, and the wells are washed three times with 200 μl of 0.9% NaCl solution each time. The radioactivity is measured using a Topcount scintillation counter (PerkinElmer, USA). IC50 values are calculated using the RS1 computer program.

[5] = biological target: TIE2 (Homo sapiens, UniProt Q02763); assay: Inhibition of TIE2 (flashplate assay); format: biochemical; settings: flashplate method
TIE2, sequence (Q02763 23-1124, species assumed): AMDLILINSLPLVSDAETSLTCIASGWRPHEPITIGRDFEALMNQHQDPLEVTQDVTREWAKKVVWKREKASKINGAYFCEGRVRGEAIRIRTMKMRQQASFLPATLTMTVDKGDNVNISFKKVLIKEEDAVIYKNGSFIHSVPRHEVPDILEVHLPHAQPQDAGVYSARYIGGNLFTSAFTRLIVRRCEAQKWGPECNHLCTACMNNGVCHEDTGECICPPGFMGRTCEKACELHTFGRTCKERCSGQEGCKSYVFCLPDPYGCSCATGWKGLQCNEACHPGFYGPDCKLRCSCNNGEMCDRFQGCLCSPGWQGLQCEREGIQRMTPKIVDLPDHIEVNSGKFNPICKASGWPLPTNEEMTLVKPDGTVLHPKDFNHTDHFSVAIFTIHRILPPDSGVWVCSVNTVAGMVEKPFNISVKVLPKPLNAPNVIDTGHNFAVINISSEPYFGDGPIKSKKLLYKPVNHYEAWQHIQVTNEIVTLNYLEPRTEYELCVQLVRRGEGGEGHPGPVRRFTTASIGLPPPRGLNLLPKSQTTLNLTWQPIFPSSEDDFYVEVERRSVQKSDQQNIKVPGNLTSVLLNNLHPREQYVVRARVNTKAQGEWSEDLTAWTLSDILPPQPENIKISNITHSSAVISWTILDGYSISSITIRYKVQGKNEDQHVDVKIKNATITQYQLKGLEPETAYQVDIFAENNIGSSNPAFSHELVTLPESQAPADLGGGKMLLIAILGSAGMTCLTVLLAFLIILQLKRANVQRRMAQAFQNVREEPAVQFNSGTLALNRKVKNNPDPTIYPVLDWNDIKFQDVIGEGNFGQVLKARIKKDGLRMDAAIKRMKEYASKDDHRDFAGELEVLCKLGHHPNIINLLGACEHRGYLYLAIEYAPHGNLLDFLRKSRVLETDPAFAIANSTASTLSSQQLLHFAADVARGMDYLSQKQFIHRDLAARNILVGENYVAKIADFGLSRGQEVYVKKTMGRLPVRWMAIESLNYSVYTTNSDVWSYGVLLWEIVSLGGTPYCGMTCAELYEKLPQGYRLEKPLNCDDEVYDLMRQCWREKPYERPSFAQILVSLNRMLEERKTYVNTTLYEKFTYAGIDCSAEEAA
Experimental: B4: inhibition of T1E2 (Flashplate Assay)
as §1, with “384-well” for “96-well”, “TIE2” for “PDGFRβ”, “together with biotinylated poly(Glu, Tyr)4:1.” for “(here autophosphorylation of the kinase).”, “25” for “150”, “200” for “60”, “100” for “200”

[6] = biological target: VEGF-2 (Homo sapiens, UniProt P35968); assay: Inhibition of VEGF-2 (flashplate assay); format: biochemical; settings: flashplate method
Experimental: as §1, with “384-well” for “96-well”, “VEGF-2” for “PDGFRβ”, “together with biotinylated poly(Glu, Tyr)4:1.” for “(here autophosphorylation of the kinase).”, “25” for “150”, “200” for “60”, “100” for “200”

[7] = biological target: IGF1R (Homo sapiens, UniProt P08069); assay: Inhibition of IGF1R (flashplate assay); format: biochemical; settings: flashplate method
IGF1R, sequence (P08069 31-1367, species assumed): as the sequence (P08069 31-1367) above
Experimental: as §1, with “The IGF1R” for “The PDGFRβ”, “for 1” for “for 3”, “temperature together with biotinylated poly(Glu, Tyr)4:1.” for “temperature (here autophosphorylation of the kinase).”, “using 25” for “using 150”, “a 200” for “a 60”, “with 100” for “with 200”

Compound NCC1CC(n2cc(-c3cccc(C(F)(F)F)c3)c3c(N)ncnc32)C1 (stereo not shown) [Compound 17] has an IC50 [1] of 2700 nM and an IC50 [2] of 25000 nM.

In the case of NCC1CC(n2cc(-c3cccc(OC(F)(F)F)c3)c3c(N)ncnc32)C1 (stereo not shown) [Compound 18], the melting point is reported as 88 to 90 °C, the IC50 [3] is reported as 22000 nM and the IC50 [1] is reported as 1000 nM. It also gave an IC50 [2] of 17500 nM.

For CC(C)c1cccc(-c2cn(C3CC(CN)C3)c3ncnc(N)c23)c1 (stereo not shown) [Compound 16], the melting point was 93 to 94.5 °C, the IC50 [3] was 22000 nM and the IC50 [1] was 1500 nM. It also gave an IC50 [2] of 28500 nM.

N#Cc1ccc(-c2cn(C3CC(CN)C3)c3ncnc(N)c23)cc1F (stereo not shown) [Compound 59] showed an IC50 [4] of 620 nM, an IC50 [1] of 8300 nM and an IC50 [2] of 4100 nM.

NCC1CC(n2cc(-c3cnc4ccccc4c3)c3c(N)ncnc32)C1 (stereo not shown) [Compound 69] showed an IC50 [3] of 25000 nM, an IC50 [1] of 39 nM and an IC50 [2] of 8000 nM.

With NCC1CC(n2cc(-c3cccnc3)c3c(N)ncnc32)C1 (stereo not shown) [Compound 44] the IC50 [3] was 13000 nM and the IC50 [1] was 950 nM.

In the case of NCC1CC(n2cc(-c3cccs3)c3c(N)ncnc32)C1 (stereo not shown) (as salt: TFA) [Compound 41], the melting point is reported as 206 to 207.5 °C.

In the case of NCC1CC(n2cc(-c3cccc4occc34)c3c(N)ncnc32)C1 (stereo not shown) [Compound 65], the IC50 [5] is reported as 2900 nM, the IC50 [4] is reported as 940 nM and the IC50 [1] is reported as 45 nM. It also gave an IC50 [6] of 1320 nM and an IC50 [2] of 420 nM.

In the case of NCC1CC(n2cc(-c3cccc([N+](=O)[O-])c3)c3c(N)ncnc32)C1 (stereo not shown) [Compound 20], the melting point is reported as 53 to 55 °C, the IC50 [1] is reported as 700 nM and the IC50 [2] is reported as 4000 nM.

For Nc1ncnc2c1c(-c1ccc3c(c1)OCCO3)cn2C1CC(CN2CCCC2)C1 (stereo not shown) [Compound 54], the IC50 [2] was 28000 nM.

NCC1CC(n2cc(-c3ccc4ccn(Cc5ccccc5)c4c3)c3c(N)ncnc32)C1 (stereo not shown) [Compound 55] gave an IC50 [5] of 680 nM, an IC50 [3] of 3500 nM and an IC50 [6] of 190 nM. It also gave an IC50 [7] of 1600 nM and an IC50 [2] of 24000 nM.

Compound NCC1CC(n2cc(I)c3c(N)ncnc32)C1 (stereo not shown) (as salt: HCl) [Compound 52] has a melting point of 241 to 242.5 °C.

In the case of N#Cc1cccc(-c2cn(C3CC(CN)C3)c3ncnc(N)c23)c1 (stereo not shown) [Compound 57], the IC50 [1] is reported as 6100 nM and the IC50 [2] is reported as 25000 nM.

N#Cc1cccc(-c2cn(C3CC(CN)C3)c3ncnc(N)c23)c1 (stereo not shown) (as salt: TFA) [Compound 57] showed a melting point of 186.5 to 189 °C.

N#Cc1ccc(-c2cn(C3CC(CN)C3)c3ncnc(N)c23)cc1N (stereo not shown) [Compound 58] gave an IC50 [4] of 430 nM, an IC50 [1] of 1100 nM and an IC50 [6] of 610 nM.

With CC(=O)Nc1cccc(-c2cn(C3CC(CN)C3)c3ncnc(N)c23)c1 (stereo not shown) [Compound 21] the IC50 [1] was 6500 nM and the IC50 [2] was 17000 nM.

For NCC1CC(n2cc(-c3ccc4occc4c3)c3c(N)ncnc32)C1 (stereo not shown) [Compound 63], the IC50 [5] was 1800 nM, the melting point was 156 to 159 °C and the IC50 [4] was 310 nM. It also gave an IC50 [1] of 55 nM, an IC50 [6] of 290 nM and an IC50 [2] of 630 nM.

With CS(=O)(=O)Nc1cccc(-c2cn(C3CC(CN)C3)c3ncnc(N)c23)c1 (stereo not shown) [Compound 13] the melting point was 82 to 84 °C, the IC50 [4] was 5800 nM and the IC50 [6] was 6500 nM. For the same compound, the IC50 [2] was 28000 nM.

Work on NCC1CC(n2cc(C(Cl)=CCOCc3ccccc3)c3c(N)ncnc32)C1 (stereo not shown) [Compound 71] yielded an IC50 [3] of 21000 nM and an IC50 [1] of 5500 nM.

Work on NCC1CC(n2cc(-c3cccc(N(CCCCO)Cc4ccccc4)c3)c3c(N)ncnc32)C1 (stereo not shown) [Compound 61] yielded an IC50 [5] of 3900 nM.

NCC1CC(n2cc(-c3ccncc3)c3c(N)ncnc32)C1 (stereo not shown) [Compound 43] gave an IC50 [3] of 27000 nM and an IC50 [1] of 150 nM.

NCC1CC(n2cc(-c3ccco3)c3c(N)ncnc32)C1 (stereo not shown) (as salt: TFA) [Compound 38] gave a melting point of 207.5 to 209 °C.

Compound NCC1CC(n2cc(-c3ccc4c(c3)n(Cc3ccccc3)c(=O)n4Cc3ccccc3)c3c(N)ncnc32)C1 (stereo not shown) [Compound 33] has an IC50 [5] of 370 nM, a melting point of 72.5 to 74 °C and an IC50 [4] of 6850 nM. The IC50 [3] was 20000 nM and the IC50 [2] was 27000 nM.

Work on NCC1CC(n2cc(-c3cccc(C(N)=O)c3)c3c(N)ncnc32)C1 (stereo not shown) [Compound 60] yielded an IC50 [1] of 530 nM.

In the case of NCC1CC(n2cc(-c3cc4ccccc4o3)c3c(N)ncnc32)C1 (stereo not shown) (as salt: TFA) [Compound 37], the melting point is reported as 202.5 to 204.5 °C.

In the case of C[Si](C)(C)COc1cccc(-c2cn(C3CC(CN)C3)c3ncnc(N)c23)c1 (stereo not shown) (as salt: TFA) [Compound 9], the melting point is reported as 83 to 84 °C.

Compound CN(Cc1ccccc1)c1cccc(-c2cn(C3CC(CN)C3)c3ncnc(N)c23)c1 (stereo not shown) [Compound 26] has a melting point of 197 to 200 °C, an IC50 [3] of 11000 nM and an IC50 [1] of 1100 nM. For the same compound, the IC50 [6] was 2700 nM.

In the case of C[Si](C)(COc1cccc(-c2cn(C3CC(CN)C3)c3ncnc(N)c23)c1)c1ccccc1 (stereo not shown) (as salt: TFA) [Compound 8], the melting point is reported as 172 to 174.5 °C.

With NCC1CC(n2cc(-c3ccncc3)c3c(N)ncnc32)C1 (stereo not shown) (as salt: TFA) [Compound 43] the melting point was > 195 °C (dec.).

For NCC1CC(n2cc(-c3ccc4c(c3)OCCO4)c3c(N)ncnc32)C1 (stereo not shown) [Compound 53], the IC50 [5] was 2000 nM, the melting point was 324 to 325.5 °C and the IC50 [4] was 1100 nM. For the same compound, the IC50 [3] was 5300 nM, the IC50 [1] was 1600 nM and the IC50 [6] was 1400 nM. It also gave an IC50 [2] of 1900 nM.
